Test results reported in US10703728B1, “Crystalline form of olaparib and a process for preparing the same” (SCINOPHARM TAIWAN, LTD., priority 2019, dated 2020).
≈ marks a conversion by molar mass, not a printed value.

Experiments:
[1] = Solubility of olaparib at 60° C. in solvents and anti-solvents; assay type: physicochemical
Protocol: (§1) “Solvent” refers to a liquid substance capable of dissolving olaparib at a concentration of at least about 2.5% (w/w) at 60° C.
In the Tables above, examples of good solvents include, but are not limited to, an alcohol (e.g., methanol or ethanol), acetic acid, dimethylacetamide, dimethyl sulfoxide and pyridine. Examples of poor solvents (anti-solvents) include, but are not limited to, water, toluene, acetonitrile, cyclohexane, isopropanol, tetrahydrofuran, n-butanol, xylenes, ethyl acetate and n-heptane.

[2] = Solubility of olaparib at room temperature; assay type: physicochemical; conditions: for solubility: organic solvent or mixture
Protocol: as §1

O=C(c1cc(Cc2n[nH]c(=O)c3ccccc23)ccc1F)N1CCN(C(=O)C2CC2)CC1 [olaparib, 4-[(3-[(4-cyclopropylcarbonyl)piperazin-4-yl]carbonyl)-4-fluorophenyl]methyl(2H)phthalazin-1-one]
Solubility of olaparib ([1]; ACN): <2.1 wt %
Solubility of olaparib ([1]; DMAc): >23.5 wt %
Solubility of olaparib (Summary, solvents for olaparib) ([1]; DMAc, Pyridine): >15% (w/w)
Solubility of olaparib ([1]; EA): <1.8 wt %
Solubility of olaparib ([1]; EtOH): 2.6-2.9 wt %
Solubility of olaparib (Summary, solvents for olaparib) ([1]; EtOH, MeOH): 2.5-10% (w/w)
Solubility of olaparib ([1]; IPA): <2.1 wt %
Solubility of olaparib ([1]; MeOH): 6.7-8.8 wt %
Solubility of olaparib ([1]; Pyridine): >21.5 wt %
Solubility of olaparib ([1]; THF): <1.9 wt %
Solubility of olaparib ([1]; Toluene): <1.9 wt %
Solubility of olaparib (Summary, anti-solvents for olaparib) ([1]; Toluene, ACN, Cyclohexane, IPA, THF, EA, Xylenes, n-heptane, Water, n-butanol): <2.5% (w/w)
Solubility of olaparib ([1]; Xylenes): <1.9 wt %
solubility ([1]; acetonitrile (ACN), organic solvent or mixture, ACN): < 16.2 mg/mL
Solubility of olaparib ([1]; cyclohexane): <2.1 wt %
solubility ([1]; dimethylacetamide (DMAc), organic solvent or mixture, DMAc): > 220 mg/mL
solubility ([1]; ethanol (EtOH), organic solvent or mixture, EtOH): 21 to 23 mg/mL (≈ 48.3 to 52.9 mM)
solubility ([1]; ethyl acetate (EA), organic solvent or mixture, EA): < 16.2 mg/mL
solubility ([1]; isopropanol (IPA), organic solvent or mixture, IPA): < 16.2 mg/mL
solubility ([1]; methanol (MeOH), organic solvent or mixture, MeOH): 53 to 70 mg/mL (≈ 122 to 161 mM)
Solubility of olaparib ([1]; n-butanol): <2.1 wt %
Solubility of olaparib ([1]; n-heptane): <2.4 wt %
solubility ([1]; organic solvent or mixture, Pyridine): > 210 mg/mL
solubility ([1]; organic solvent or mixture, Toluene): < 16.9 mg/mL
solubility ([1]; organic solvent or mixture, Xylenes): < 16.2 mg/mL
solubility ([1]; organic solvent or mixture, cyclohexane): < 16.2 mg/mL
solubility ([1]; organic solvent or mixture, n-butanol): < 16.9 mg/mL
solubility ([1]; organic solvent or mixture, n-heptane): < 16.2 mg/mL
solubility ([1]; tetrahydrofuran (THF), organic solvent or mixture, THF): < 16.9 mg/mL
Solubility of olaparib ([1]; water): <1.6 wt %
solubility ([1]; water): < 16.2 mg/mL
Solubility of olaparib ([2]; AcOH): >20.0 wt %
Solubility of olaparib (Summary, solvents for olaparib) ([2]; AcOH, DMSO): >15% (w/w)
Solubility of olaparib ([2]; DMSO): >19.1 wt %
solubility ([2]; acetic acid (AcOH), AcOH): > 210 mg/mL
solubility ([2]; dimethyl sulfoxide (DMSO), DMSO): > 210 mg/mL
